The numbers were not newly measured in patent publication US20240293312A1, “PHARMACEUTICAL COMPOSITIONS OF 3-(4-AMINO-1-OXO-1, 3 DIHYDRO-ISOINDOL-2-YL)-PIPERIDINE-2, 6-DIONE” (priority 2021, published 2024), which cites them from elsewhere.

On to `Nc1cccc2c1CN(C1CCC(=O)NC1=O)C2=O` (stereo not shown) [Lenalidomide, 3-(4-amino-1-oxo-1,3-dihydro-2H-isoindol-2-yl) piperidine-2,6-dione], for which the “solubility (in words)” value was “soluble in organic solvent/water mixtures, and buffered aqueous solvents”.
